Assay results taken from patent US4064137A (priority 1976, dated 1977).
“And” between values parts separate entries of the source, which are not always exact repeats. Equal values may be shown once. Read-outs that look alike come from different tables or passages of the source.

What was measured:
Vaccinia virus = type: in vivo, mouse; conditions: for Number of pox / Inhibition percent: intraperitoneal; for Number of pox: 8th day after inoculation; for Inhibition percent: 8th day, vs control mouse
spleen cells of a mouse = type: cell-based

COC(=O)C1N2C(=O)C3(CC(C#N)=C(c4ccccc4)N3)C2SC1(C)C (stereo not drawn) [3'-Cyano-2'-phenyl-2'-pyrroline-5'-spiro-6-penicillanic acid methyl ester]
Number of pox (Vaccinia virus; 0.49 mg/kg × 4 times): 16.0
Inhibition percent (Vaccinia virus; 0.49 mg/kg × 4 times): 34.7%
Number of pox (Vaccinia virus; 1.95 mg/kg × 4 times): 9.1
Inhibition percent (Vaccinia virus; 1.95 mg/kg × 4 times): 62.9%
Number of pox (Vaccinia virus; 7.8 mg/kg × 4 times): 11.2
Inhibition percent (Vaccinia virus; 7.8 mg/kg × 4 times): 54.3%
interferon inducibility (in words) (Vaccinia virus; conclusion after in vivo test): excellent interferon inducibility
Interferon titre (spleen cells of a mouse): 320 unit and 160 unit
units of interferon induced (spleen cells of a mouse): 320 units
